Data as given in publication PMC6407913, “DREADD Agonist 21 Is an Effective Agonist for Muscarinic-Based DREADDs in Vitro and in Vivo” (ACS Pharmacology & Translational Science, 2018).
Values joined by “and” are separate entries in the source; they are usually repeats but may differ in a detail not shown here. Equal entries are not always repeated.

What was measured:
Assay type in all cases: cell-based
[1] = target: T1, 318 nonolfactory human GPCRs (Homo sapiens, UniProt P25089); settings: FPR3; C21 5 µM
T1 construct: expressed in transfected cells; host or cells: HTLA cells, transient
T1 sequence (P25089 whole entry): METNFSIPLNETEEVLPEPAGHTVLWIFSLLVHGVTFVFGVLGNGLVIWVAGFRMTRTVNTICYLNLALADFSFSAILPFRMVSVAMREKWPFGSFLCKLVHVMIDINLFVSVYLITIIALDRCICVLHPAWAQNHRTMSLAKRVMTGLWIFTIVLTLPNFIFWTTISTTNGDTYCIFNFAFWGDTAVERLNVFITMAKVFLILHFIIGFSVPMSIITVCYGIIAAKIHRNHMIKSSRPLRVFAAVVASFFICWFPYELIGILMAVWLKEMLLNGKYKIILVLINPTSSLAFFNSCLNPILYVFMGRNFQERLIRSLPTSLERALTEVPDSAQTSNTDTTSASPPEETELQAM

[2] = target: T2, 318 nonolfactory human GPCRs (Homo sapiens, UniProt O95800); settings: GPR75; C21 5 µM
T2 construct: expressed in transfected cells; host or cells: HTLA cells, transient
T2 sequence (O95800 whole entry): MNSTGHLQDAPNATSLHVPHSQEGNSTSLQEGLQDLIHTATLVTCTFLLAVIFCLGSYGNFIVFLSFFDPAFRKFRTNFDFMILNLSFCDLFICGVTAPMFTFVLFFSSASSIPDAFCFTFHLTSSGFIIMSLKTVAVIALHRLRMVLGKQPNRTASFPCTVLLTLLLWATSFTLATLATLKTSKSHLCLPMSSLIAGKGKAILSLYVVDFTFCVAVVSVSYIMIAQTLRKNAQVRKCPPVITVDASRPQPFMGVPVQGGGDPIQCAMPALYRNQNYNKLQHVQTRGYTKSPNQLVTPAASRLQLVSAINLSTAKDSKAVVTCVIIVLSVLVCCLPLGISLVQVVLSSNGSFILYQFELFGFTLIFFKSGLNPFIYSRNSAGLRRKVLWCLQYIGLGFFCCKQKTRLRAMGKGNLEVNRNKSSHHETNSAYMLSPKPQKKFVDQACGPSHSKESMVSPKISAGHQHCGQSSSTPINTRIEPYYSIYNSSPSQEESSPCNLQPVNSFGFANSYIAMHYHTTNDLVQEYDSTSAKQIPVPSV

[3] = target: T3, 318 nonolfactory human GPCRs (Homo sapiens, UniProt Q96LB2); settings: MRGPRX1; C21 5 µM
T3 construct: expressed in transfected cells; host or cells: HTLA cells, transient

[4] = target: T4, 318 nonolfactory human GPCRs (Homo sapiens, UniProt Q8TDV2); settings: GPR148; C21 5 µM
T4 construct: expressed in transfected cells; host or cells: HTLA cells, transient

[5] = target: T5, 318 nonolfactory human GPCRs (Homo sapiens, UniProt P47898); settings: HTR5; C21 5 µM
T5 construct: expressed in transfected cells; host or cells: HTLA cells, transient
T5 sequence (P47898 whole entry): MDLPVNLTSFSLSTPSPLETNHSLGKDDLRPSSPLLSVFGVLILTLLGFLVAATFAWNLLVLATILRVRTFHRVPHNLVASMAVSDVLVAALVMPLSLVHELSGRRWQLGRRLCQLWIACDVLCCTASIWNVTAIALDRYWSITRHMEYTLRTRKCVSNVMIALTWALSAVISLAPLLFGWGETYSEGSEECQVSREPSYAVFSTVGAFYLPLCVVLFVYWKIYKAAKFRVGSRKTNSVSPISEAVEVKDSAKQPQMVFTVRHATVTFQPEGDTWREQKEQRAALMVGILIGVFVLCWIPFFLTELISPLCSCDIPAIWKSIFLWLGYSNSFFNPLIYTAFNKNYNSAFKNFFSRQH

[6] = target: T6, 318 nonolfactory human GPCRs (Homo sapiens, UniProt Q9Y2T6); settings: GPR55; C21 5 µM
T6 construct: expressed in transfected cells; host or cells: HTLA cells, transient
T6 sequence (Q9Y2T6 whole entry): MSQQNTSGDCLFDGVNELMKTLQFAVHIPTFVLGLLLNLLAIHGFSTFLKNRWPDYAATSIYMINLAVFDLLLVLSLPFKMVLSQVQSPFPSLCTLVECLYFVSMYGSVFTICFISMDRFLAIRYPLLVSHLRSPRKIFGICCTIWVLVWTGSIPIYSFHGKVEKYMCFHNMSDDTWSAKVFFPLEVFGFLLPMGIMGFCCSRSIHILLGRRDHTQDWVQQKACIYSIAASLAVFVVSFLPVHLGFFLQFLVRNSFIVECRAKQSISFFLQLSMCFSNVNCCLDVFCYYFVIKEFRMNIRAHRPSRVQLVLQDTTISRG

[7] = target: T7, 318 nonolfactory human GPCRs (Homo sapiens, UniProt Q13639); settings: HTR4; C21 5 µM
T7 construct: expressed in transfected cells; host or cells: HTLA cells, transient

[8] = target: 318 nonolfactory human GPCRs (Homo sapiens, UniProt P21918); settings: DRD5; C21 5 µM
[9] = target: 318 nonolfactory human GPCRs (Homo sapiens, UniProt P48546); settings: GIPR; C21 5 µM
[10] = target: T8, 318 nonolfactory human GPCRs (Homo sapiens, UniProt P08908); settings: HTR1A; C21 5 µM
T8 construct: expressed in transfected cells; host or cells: HTLA cells, transient
T8 sequence (P08908 whole entry): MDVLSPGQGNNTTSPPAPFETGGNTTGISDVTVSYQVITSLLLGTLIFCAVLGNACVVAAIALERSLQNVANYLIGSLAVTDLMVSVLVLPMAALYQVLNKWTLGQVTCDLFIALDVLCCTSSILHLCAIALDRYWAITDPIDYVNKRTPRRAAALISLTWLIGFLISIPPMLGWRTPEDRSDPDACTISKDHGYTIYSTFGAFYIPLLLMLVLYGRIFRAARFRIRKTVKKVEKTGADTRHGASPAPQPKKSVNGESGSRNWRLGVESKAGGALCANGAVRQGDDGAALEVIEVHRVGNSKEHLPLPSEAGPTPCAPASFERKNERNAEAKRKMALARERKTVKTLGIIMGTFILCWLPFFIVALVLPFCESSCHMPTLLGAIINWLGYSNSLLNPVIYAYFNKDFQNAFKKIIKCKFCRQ

[11] = target: T9, 318 nonolfactory human GPCRs (Homo sapiens, UniProt Q16538); settings: GPR162; C21 5 µM
T9 construct: expressed in transfected cells; host or cells: HTLA cells, transient

[12] = target: T10, 318 nonolfactory human GPCRs (Homo sapiens, UniProt Q9UKP6); settings: UTS2R; C21 5 µM
T10 construct: expressed in transfected cells; host or cells: HTLA cells, transient

[13] = target: T11, 318 nonolfactory human GPCRs (Homo sapiens, UniProt P46089); settings: GPR3; C21 5 µM
T11 construct: expressed in transfected cells; host or cells: HTLA cells, transient

[14] = target: T12, 318 nonolfactory human GPCRs (Homo sapiens, UniProt P28336); settings: NMBR; C21 5 µM
T12 construct: expressed in transfected cells; host or cells: HTLA cells, transient

[15] = target: T13, 318 nonolfactory human GPCRs (Homo sapiens, UniProt Q15077); settings: P2RY6; C21 5 µM
T13 construct: expressed in transfected cells; host or cells: HTLA cells, transient

[16] = target: T14, 318 nonolfactory human GPCRs (Homo sapiens, UniProt Q8IZP9); settings: GPR64; C21 5 µM
T14 construct: expressed in transfected cells; host or cells: HTLA cells, transient

[17] = target: T15, 318 nonolfactory human GPCRs (Homo sapiens, UniProt Q13324); settings: CRHR2; C21 5 µM
T15 construct: expressed in transfected cells; host or cells: HTLA cells, transient
T15 sequence (Q13324 whole entry): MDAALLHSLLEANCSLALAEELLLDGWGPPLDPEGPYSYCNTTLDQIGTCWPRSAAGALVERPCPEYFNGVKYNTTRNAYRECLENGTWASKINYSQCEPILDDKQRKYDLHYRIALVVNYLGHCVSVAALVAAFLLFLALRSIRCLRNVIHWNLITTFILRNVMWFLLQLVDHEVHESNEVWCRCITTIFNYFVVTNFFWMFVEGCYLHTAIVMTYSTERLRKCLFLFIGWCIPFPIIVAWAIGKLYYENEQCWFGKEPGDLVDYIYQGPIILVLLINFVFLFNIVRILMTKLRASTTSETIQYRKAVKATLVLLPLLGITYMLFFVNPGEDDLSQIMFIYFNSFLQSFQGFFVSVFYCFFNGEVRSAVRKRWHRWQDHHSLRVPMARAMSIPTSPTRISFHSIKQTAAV

[18] = target: 318 nonolfactory human GPCRs (Homo sapiens, UniProt Q13258); settings: PTGDR; C21 5 µM
318 nonolfactory human GPCRs (Homo sapiens, UniProt Q13258), sequence (Q13258 whole entry): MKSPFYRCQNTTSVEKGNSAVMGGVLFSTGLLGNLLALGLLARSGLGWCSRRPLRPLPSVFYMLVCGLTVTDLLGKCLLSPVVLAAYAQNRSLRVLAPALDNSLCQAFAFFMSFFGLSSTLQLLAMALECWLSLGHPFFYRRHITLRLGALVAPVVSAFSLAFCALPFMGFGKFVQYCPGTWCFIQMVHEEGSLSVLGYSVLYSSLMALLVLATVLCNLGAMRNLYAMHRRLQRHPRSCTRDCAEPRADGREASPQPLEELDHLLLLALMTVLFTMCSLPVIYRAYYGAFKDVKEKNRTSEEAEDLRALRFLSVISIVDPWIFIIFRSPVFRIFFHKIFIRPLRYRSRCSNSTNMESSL

[19] = target: T16, 318 nonolfactory human GPCRs (Homo sapiens, UniProt Q9H244); settings: P2RY12; C21 5 µM
T16 construct: expressed in transfected cells; host or cells: HTLA cells, transient
T16 sequence (Q9H244 whole entry): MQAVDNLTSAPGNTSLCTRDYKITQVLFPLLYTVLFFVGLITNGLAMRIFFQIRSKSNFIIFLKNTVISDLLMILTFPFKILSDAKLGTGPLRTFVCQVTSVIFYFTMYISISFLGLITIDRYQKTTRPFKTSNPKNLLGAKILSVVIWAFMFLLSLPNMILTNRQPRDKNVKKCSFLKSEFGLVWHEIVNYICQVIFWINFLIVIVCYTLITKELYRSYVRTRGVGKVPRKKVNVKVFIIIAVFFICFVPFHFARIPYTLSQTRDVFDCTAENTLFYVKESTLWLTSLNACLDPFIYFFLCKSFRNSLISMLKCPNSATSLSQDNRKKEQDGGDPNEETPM

[20] = target: T17, 318 nonolfactory human GPCRs (Homo sapiens, UniProt Q92847); settings: GHSR; C21 5 µM
T17 construct: expressed in transfected cells; host or cells: HTLA cells, transient

[21] = target: T18, 318 nonolfactory human GPCRs (Homo sapiens, UniProt P47775); settings: GPR12; C21 5 µM
T18 construct: expressed in transfected cells; host or cells: HTLA cells, transient

[22] = target: T19, 318 nonolfactory human GPCRs (Homo sapiens, UniProt Q8NDV2); settings: GPR26; C21 5 µM
T19 construct: expressed in transfected cells; host or cells: HTLA cells, transient

[23] = target: 318 nonolfactory human GPCRs (Homo sapiens, UniProt P35462); settings: DRD3; C21 5 µM
318 nonolfactory human GPCRs (Homo sapiens, UniProt P35462), sequence (P35462 whole entry): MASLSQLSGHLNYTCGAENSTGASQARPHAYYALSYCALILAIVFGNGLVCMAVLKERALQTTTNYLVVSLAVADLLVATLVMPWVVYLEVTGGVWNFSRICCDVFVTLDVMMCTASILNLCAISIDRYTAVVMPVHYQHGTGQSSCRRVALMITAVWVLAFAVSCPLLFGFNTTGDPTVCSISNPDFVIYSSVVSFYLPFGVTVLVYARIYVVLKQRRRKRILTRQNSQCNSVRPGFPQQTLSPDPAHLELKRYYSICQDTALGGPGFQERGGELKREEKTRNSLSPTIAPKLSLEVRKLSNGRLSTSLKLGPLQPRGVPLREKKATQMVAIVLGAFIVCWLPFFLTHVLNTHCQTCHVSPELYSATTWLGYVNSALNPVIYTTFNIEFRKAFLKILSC

[24] = target: T20, 318 nonolfactory human GPCRs (Homo sapiens, UniProt P43115); settings: PTGER3; C21 5 µM
T20 construct: expressed in transfected cells; host or cells: HTLA cells, transient

[25] = target: 318 nonolfactory human GPCRs (Homo sapiens, UniProt P30989); settings: NTSR1; C21 5 µM
[26] = target: T21, 318 nonolfactory human GPCRs (Homo sapiens, UniProt Q9P1P5); settings: TAAR2; C21 5 µM
T21 construct: expressed in transfected cells; host or cells: HTLA cells, transient

[27] = target: T22, 318 nonolfactory human GPCRs (Homo sapiens, UniProt P20309); settings: CHRM3; C21 5 µM
T22 construct: expressed in transfected cells; host or cells: HTLA cells, transient

[28] = target: T23, 318 nonolfactory human GPCRs (Homo sapiens, UniProt Q96P68); settings: OXGR1; C21 5 µM
T23 construct: expressed in transfected cells; host or cells: HTLA cells, transient

[29] = target: T24, 318 nonolfactory human GPCRs (Homo sapiens, UniProt P47901); settings: AVPR1B; C21 5 µM
T24 construct: expressed in transfected cells; host or cells: HTLA cells, transient

[30] = target: 318 nonolfactory human GPCRs (Homo sapiens, UniProt P28221); settings: HTR1D; C21 5 µM
318 nonolfactory human GPCRs (Homo sapiens, UniProt P28221), sequence (P28221 whole entry): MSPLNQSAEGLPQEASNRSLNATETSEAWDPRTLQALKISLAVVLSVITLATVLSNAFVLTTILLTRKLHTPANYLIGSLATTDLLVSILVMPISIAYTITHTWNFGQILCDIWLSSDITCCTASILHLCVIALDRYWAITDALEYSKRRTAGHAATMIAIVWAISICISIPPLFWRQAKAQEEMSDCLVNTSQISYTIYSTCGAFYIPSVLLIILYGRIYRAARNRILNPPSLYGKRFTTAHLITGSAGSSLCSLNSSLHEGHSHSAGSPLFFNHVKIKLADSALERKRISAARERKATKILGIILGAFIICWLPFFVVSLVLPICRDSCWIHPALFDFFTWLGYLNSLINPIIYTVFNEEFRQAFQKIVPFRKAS

[31] = target: T25, 318 nonolfactory human GPCRs (Homo sapiens, UniProt Q14416); settings: GMR2; C21 5 µM
T25 construct: expressed in transfected cells; host or cells: HTLA cells, transient

[32] = target: T26, 318 nonolfactory human GPCRs (Homo sapiens, UniProt Q9H3N8); settings: HRH4; C21 5 µM
T26 construct: expressed in transfected cells; host or cells: HTLA cells, transient
T26 sequence (Q9H3N8 whole entry): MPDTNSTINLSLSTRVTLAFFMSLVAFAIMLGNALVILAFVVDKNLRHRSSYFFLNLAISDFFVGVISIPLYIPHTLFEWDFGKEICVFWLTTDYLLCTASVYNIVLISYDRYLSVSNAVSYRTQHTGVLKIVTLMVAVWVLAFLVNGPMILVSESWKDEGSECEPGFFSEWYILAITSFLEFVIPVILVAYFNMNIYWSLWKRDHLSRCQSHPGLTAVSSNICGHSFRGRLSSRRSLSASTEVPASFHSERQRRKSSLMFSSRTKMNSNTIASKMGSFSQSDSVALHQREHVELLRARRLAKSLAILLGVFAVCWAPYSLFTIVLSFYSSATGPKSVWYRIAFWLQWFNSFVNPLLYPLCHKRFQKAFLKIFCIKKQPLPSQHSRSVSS

[33] = target: 318 nonolfactory human GPCRs (Homo sapiens, UniProt Q99500); settings: S1PR3; C21 5 µM
318 nonolfactory human GPCRs (Homo sapiens, UniProt Q99500), sequence (Q99500 whole entry): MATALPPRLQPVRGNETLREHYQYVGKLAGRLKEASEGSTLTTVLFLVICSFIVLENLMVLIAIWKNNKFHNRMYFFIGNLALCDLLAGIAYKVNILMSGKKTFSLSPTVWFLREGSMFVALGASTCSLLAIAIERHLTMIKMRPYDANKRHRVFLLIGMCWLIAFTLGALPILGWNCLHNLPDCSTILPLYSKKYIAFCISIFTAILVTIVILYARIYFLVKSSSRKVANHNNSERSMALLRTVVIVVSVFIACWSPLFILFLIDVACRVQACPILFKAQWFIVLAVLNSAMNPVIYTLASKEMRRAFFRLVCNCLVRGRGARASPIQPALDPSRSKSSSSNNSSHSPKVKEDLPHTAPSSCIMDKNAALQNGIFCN

[34] = target: T27, 318 nonolfactory human GPCRs (Homo sapiens, UniProt P51684); settings: CCR6; C21 5 µM
T27 construct: expressed in transfected cells; host or cells: HTLA cells, transient

c1ccc2c(c1)N=C(N1CCNCC1)c1ccccc1N2 [C21, 11-(1-piperazinyl)-5H-dibenzo[b,e][1,4]diazepine]
FOLD OVER BASAL [1]: 1.2 fold and 0.9 fold and 1.1 fold and 1 fold
FOLD OVER BASAL [2]: 1.1 fold and 0.8 fold and 0.7 fold
FOLD OVER BASAL [3]: 0.6 fold and 1.2 fold
FOLD OVER BASAL [4]: 0.9 fold and 0.6 fold and 0.5 fold and 1 fold
FOLD OVER BASAL [5]: 0.9 fold and 1 fold and 0.8 fold
FOLD OVER BASAL [6]: 0.7 fold and 1 fold and 0.8 fold
FOLD OVER BASAL [7]: 1.2 fold and 0.8 fold
FOLD OVER BASAL [8]: 0.8 fold and 0.7 fold
FOLD OVER BASAL [9]: 0.3 fold and 0.4 fold
FOLD OVER BASAL [10]: 0.5 fold and 0.4 fold and 0.3 fold
FOLD OVER BASAL [11]: 0.6 fold and 0.7 fold and 0.9 fold
FOLD OVER BASAL [12]: 0.8 fold and 0.9 fold and 1 fold
FOLD OVER BASAL [13]: 0.8 fold and 0.9 fold and 0.7 fold
FOLD OVER BASAL [14]: 1 fold and 0.6 fold and 0.8 fold
FOLD OVER BASAL [15]: 1.4 fold and 0.8 fold and 1.3 fold
FOLD OVER BASAL [16]: 0.6 fold and 0.7 fold and 0.8 fold
FOLD OVER BASAL [17]: 1.3 fold and 1 fold and 0.9 fold
FOLD OVER BASAL [18]: 1.3 fold and 1.5 fold and 1 fold and 1.4 fold
FOLD OVER BASAL [19]: 0.6 fold and 1 fold and 0.5 fold and 0.8 fold
FOLD OVER BASAL [20]: 0.9 fold and 1 fold
FOLD OVER BASAL [21]: 0.5 fold and 0.7 fold and 0.6 fold
FOLD OVER BASAL [22]: 1.5 fold and 0.8 fold and 1 fold and 0.9 fold
FOLD OVER BASAL [23]: 3.6 fold and 4.2 fold and 3.3 fold and 5.4 fold
FOLD OVER BASAL [24]: 0.7 fold and 1 fold and 0.5 fold and 0.9 fold
FOLD OVER BASAL [25]: 1.1 fold and 0.9 fold and 1.2 fold
FOLD OVER BASAL [26]: 1.1 fold and 1 fold and 0.7 fold and 0.9 fold
FOLD OVER BASAL [27]: 3.1 fold and 3.7 fold and 2.6 fold and 3.4 fold
FOLD OVER BASAL [28]: 0.7 fold and 0.6 fold and 1.2 fold
FOLD OVER BASAL [29]: 0.4 fold and 0.6 fold and 0.7 fold
FOLD OVER BASAL [30]: 1 fold and 1.1 fold and 1.3 fold
FOLD OVER BASAL [31]: 1.3 fold and 1.2 fold and 0.7 fold and 1.1 fold
FOLD OVER BASAL [32]: 6.3 fold and 4 fold and 5.7 fold and 3.8 fold
FOLD OVER BASAL [33]: 0.9 fold and 0.8 fold and 1 fold
FOLD OVER BASAL [34]: 1.1 fold and 1.2 fold and 1.7 fold
